Among the data in ChEMBL document CHEMBL5321251, “Visible light-activated prodrug system with a novel heavy-atom-free photosensitizer” (Bioorg Med Chem Lett, 2023) are Drug metabolism, IC50 and Activity values, retold here.

A word on the IC50: it is the midpoint of a concentration-inhibition curve.

A short description of series [1]: Photoactivation of the compound assessed as photocleavage in the absence of 620/25 nm red light irradiation measured after 2 hrs by LC-MS analysis.
Series [2] in a line: Photoactivation of the compound assessed as photocleavage in the presence of 620/25 nm red light irradiation measured after 30 mins by LC-MS analysis. Conditions: 0.5 h.
In series [3] the test system is HeLa. The experiment in a line: Cytotoxicity against human HeLa cells assessed as inhibition of cell growth pre-treated with compound for 3 hrs followed by 620/25 nm red light irradiation for 30 mins measured after 72 hrs by CCK-8 assay. The class given is functional, cell-based. Conditions: for IC50: light or radiation study.
The nature of series [4]: Photoactivation of the compound assessed as photocleavage in the presence of 620/25 nm red light irradiation measured after 2 hrs by LC-MS analysis.
Series [5] concerns HeLa. The series can be described thus: Cytotoxicity against human HeLa cells assessed as inhibition of cell growth pre-treated with compound for 3 hrs measured after 72 hrs in dark condition by CCK-8 assay. Conditions: time 75.0 hrs. The class given is functional, cell-based.
Series [6] can be described thus: Photoactivation of the compound assessed as photocleavage in the presence of 520/25 nm green light irradiation by LC-MS analysis.
Series [7] in a line: Photoactivation of the compound assessed as photocleavage in the presence of 620/25 nm red light irradiation by LC-MS analysis.

The source made the active and inactive calls. No cut-off for these calls is given here.

For `COc1ccc(/C=C\c2cc(OC)c(OC)c(OC)c2)cc1OC(=O)/C=C/N1CCC(COC(=O)CN2C(=S)c3cc4ccc(N(C)C)cc4cc3C2=S)CC1`, the Drug metabolism entry is on record as “Metabolite_Notdetected” in series [1], 50% in series [2] and less than 20% in series [4]. In series [3], the IC50 came out at 0.0145 µM.

`CC(=O)O[C@H]1C(=O)[C@@]2(C)[C@H]([C@H](OC(=O)c3ccccc3)[C@]3(O)C[C@H](OC(=O)[C@H](O)[C@@H](NC(=O)c4ccccc4)c4ccccc4)C(C)=C1C3(C)C)[C@]1(OC(C)=O)CO[C@@H]1C[C@@H]2O` [PACLITAXEL]: the IC50 in series [3] was 0.0132 µM.

On to `CC(=O)O[C@H]1C(=O)[C@@]2(C)[C@H]([C@H](OC(=O)c3ccccc3)[C@]3(O)C[C@H](OC(=O)[C@H](OC(=O)/C=C/N4CCC(COC(=O)CN5C(=S)c6cc7ccc(N(C)C)cc7cc6C5=S)CC4)[C@@H](NC(=O)c4ccccc4)c4ccccc4)C(C)=C1C3(C)C)[C@]1(OC(C)=O)CO[C@@H]1C[C@@H]2O`, for which, in series [5], the outcome was inactive. In addition, the values for the Drug metabolism result in series [1], in series [2] and in series [6] were “Metabolite_Notdetected”, 80% and “Metabolite_Detected”, respectively. The IC50 in series [3] was 0.0072 µM.

As to `CC(=O)O[C@H]1C(=O)[C@@]2(C)[C@H]([C@H](OC(=O)c3ccccc3)[C@]3(O)C[C@H](OC(=O)[C@H](OC(=O)/C=C/N4CCC(COC(=O)CN5C(=O)c6cc7ccc(N(C)C)cc7cc6C5=O)CC4)[C@@H](NC(=O)c4ccccc4)c4ccccc4)C(C)=C1C3(C)C)[C@]1(OC(C)=O)CO[C@@H]1C[C@@H]2O`, the Drug metabolism result in series [7] is listed as “Metabolite_Notdetected”; in series [3] (time 75.5 hrs), “Metabolite not detected”.

On to `CCc1c2c(nc3ccc(OC(=O)/C=C/N4CCC(COC(=O)CN5C(=S)c6cc7ccc(N(C)C)cc7cc6C5=S)CC4)cc13)-c1cc3c(c(=O)n1C2)COC(=O)[C@]3(O)CC`, for which the Drug metabolism entry in series [1] is “Metabolite_Notdetected”; in series [2], 50%; in series [4], less than 20%. The IC50 in series [3] was determined as 0.084 µM.
